Test results published in patent publication US20250025438A1, “Derivative of aspartic acid and use thereof in treatment of metabolic diseases such as hepatic fibrosis and non-alcoholic hepatitis” (SHENZHEN JINGTAI TECHNOLOGY CO., LTD., priority 2021, published 2025).
Counter-ions that a name gives are not always drawn.

Tests used:
Type in all cases: cell-based
[1] = system: α-SMA; test: Semi-activated LX2 cells, Western blot: α-SMA protein; conditions: 50-400 μM, 48 hours, FIG. 2, vs 50 μM aspartic acid
[2] = system: Smad3; test: In vitro efficacy in semi-activated LX2 cells, qPCR: Smad3; conditions: 48 hours, Q-PCR; for inhibition of the expression of Smad3 at the mRNA level: Table 2; for inhibition at 50 µM: Homo sapiens, LX-2, 50 µM, read-out: Smad3 mRNA inhibition rate
Outline: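 LX2 cells, adhered 12 h, then exposed to test compound at 50 µM for 48 h. Total RNA extracted, reverse-transcribed and measured by SYBR Green qPCR. Relative mRNA expression by the comparative (relative quantification) method.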

[3] = system: collagen I and collagen III; test: Semi-activated LX2 cells, qPCR: collagen I and collagen III at the mRNA level; conditions: 48 hours, Q-PCR, Table 2
Outline: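 LX-2 human hepatic stellate cells, adhered 12 h, were treated with 50 µM test compound for 48 h. Total RNA was extracted, and COL1A1, COL1A2 and COL3A1 mRNA were measured by SYBR Green qPCR.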

[4] = system: COL3A1; test: In vitro efficacy in semi-activated LX2 cells, qPCR: COL3A1; conditions: Homo sapiens, LX-2, 50 µM, 48 hours, Q-PCR, read-out: COL3A1 mRNA inhibition rate

Structure (SMILES) | inhibitory effect on α-SMA protein as compared to ASP [1] | inhibition of the expression of Smad3 at the mRNA level [2] | inhibition at 50 µM [2] [%] | inhibition of the expression of collagen I and collagen III at the mRNA level [3] | inhibition at 50 µM [4] [%]
COC(=O)[C@@H](N)CC(=O)O [Compound 4] | stronger inhibitory effects | could inhibit | 25 to 50 | could inhibit | 25 to 50
COC(=O)C[C@H](N)C(=O)O [Compound 6] | stronger inhibitory effects | could inhibit | 25 to 50 | could inhibit | 25 to 50
N[C@@H](CCC(=O)O)C(=O)O [Compound 47] | stronger inhibitory effects |  | 1 to 10 | could inhibit | 10 to 25
COC(=O)C[C@H](N)C(=O)OCOC(=O)[C@@H](N)CC(=O)OC [Compound 54, 4-dimethyl O′1,01-methylene (2S,2'S)-bis (2-aminosuccinate) hydrochloride] |  |  |  | could inhibit | 10 to 25
